Where two headings read alike, the source gives them in different places.
How the values were obtained:
Format in all cases: biochemical
[1] = target: T1, rhGBA (recombinant human GBA, Imiglucerase) (Homo sapiens, UniProt P04062, R534H); test: Fluorogenic substrate (4-MU-β-D-glucoside) enzymatic assay, rhGBA; conditions: for inhibitory activity against GBA: in vitro, 30 min
T1 construct: purchased Sanofi Genzyme (Cambridge, MA, USA)
T1 sequence (P04062 40-536 R534H): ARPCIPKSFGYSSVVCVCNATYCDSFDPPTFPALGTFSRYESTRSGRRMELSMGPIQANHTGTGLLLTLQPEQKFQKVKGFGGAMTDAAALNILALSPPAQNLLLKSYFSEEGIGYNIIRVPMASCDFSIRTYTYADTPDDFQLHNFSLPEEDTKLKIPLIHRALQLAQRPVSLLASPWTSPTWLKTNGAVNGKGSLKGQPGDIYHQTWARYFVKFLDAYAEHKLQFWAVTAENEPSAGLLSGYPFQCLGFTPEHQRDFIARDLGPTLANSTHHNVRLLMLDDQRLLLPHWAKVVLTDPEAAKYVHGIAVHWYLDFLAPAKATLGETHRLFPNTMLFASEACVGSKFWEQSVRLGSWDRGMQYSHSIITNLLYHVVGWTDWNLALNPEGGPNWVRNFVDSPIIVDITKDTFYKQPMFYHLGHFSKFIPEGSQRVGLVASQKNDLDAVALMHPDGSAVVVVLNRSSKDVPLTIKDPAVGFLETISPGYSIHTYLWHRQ
Description: (§1) Using fluorogenic substrate‐based assays, we determined apparent IC50 values at 30 min incubation time of the xylo‐cyclophellitols in rhGBA, and GBA2 and GBA3 lysates of cells expressing only each of the enzymes specifically.
(§2) Enzyme activity assays: All assays were performed with lysates of HEK293T cells or zebrafish larvae in 96‐well plates at 37 °C. Samples were diluted with McIlvaine buffer (150 mM citric acid‐Na2HPO4) to a final volume of 25 μL, at pH appropriate for each enzyme. Assays were performed by incubating the samples with 100 μL 4‐methylumbelliferyl‐β‐D‐glucoside substrates diluted in McIlvaine buffer (with 0.1 % (w/v) bovine serum albumin (BSA)) for a period of 30 min or 3 h. The substrate mixtures used for each enzyme were as follows: GBA, 3.75 mM 4‐MU‐β‐D‐glucopyranoside (Glycosynth, Warrington Cheshire, UK) at pH 5.2, supplemented with 0.2 % (w/v) sodium taurocholate, 0.1 % (v/v) Triton X‐100, 0.1 % (w/v) bovine serum albumin (BSA); GBA2, 3.75 mM 4 MU‐β‐D‐glucopyranoside at pH 5.8; GBA3, 3.75 mM 4‐MU‐β‐D‐glucopyranoside at pH 6.0. After stopping the enzyme reaction with 200 μL 1 M NaOH‐glycine (pH 10.3), 4‐methylumbelliferone fluorescence was measured with a fluorimeter LS55 (Perkin Elmer, Waltham, MA, USA) with λEX 366 nm and λEM 445 nm. Enzyme activities were determined by subtraction of background (measured for incubations without enzyme). IC50 values were determined exactly as earlier described.[36]
(§3) The IC50 values were determined using a fluorogenic enzymatic assay. For GBA, 3.16 ng (53 fmol) of rhGBA, (recombinant human GBA, Imiglucerase) obtained from Sanofi Genzyme (Cambridge, MA, USA), was prepared in 12.5 μL McIlvaine buffer (150 mM, pH 5.2) supplemented with 0.1 % (v/v) Triton X‐100, and 0.2 % (w/v) sodium taurocholate, 0.1 % (w/v) bovine serum albumin (BSA). The enzyme was incubated with 12.5 μL of inhibitors diluted in McIlvaine buffer (150 mM, pH 5.2) at 37 °C for 30 min. In the case of GBA2 or GBA3, lysates of GBA/GBA2 KO HEK293T cells overexpressing GBA2 or GBA3, respectively where used. The enzymatic activity of GBA, GBA2 and GBA3 were measured with 4MU‐β‐D‐glucoside substrate as described above.

GBA2 = target: T2, GBA2 (Homo sapiens, UniProt Q9HCG7); test: Fluorogenic substrate enzymatic assay, lysate of GBA/GBA2 KO HEK293T cells overexpressing GBA2; conditions: for (Ratio) GBA2/GBA / GBA2/GBA ratio, 3 h: IC50 ratio; for (Ratio) GBA2/GBA / inhibitory activity against GBA2: in vitro, 30 min; for IC50: n=3
T2 construct: expressed in transfected cells; host or cells: HEK293T (GBA/GBA2 KO background for the fluorogenic assay; endogenous-GBA background with GBA2 and GBA3 overexpressed for ABPP and intact-cell assays)
T2 sequence (Q9HCG7 1-927): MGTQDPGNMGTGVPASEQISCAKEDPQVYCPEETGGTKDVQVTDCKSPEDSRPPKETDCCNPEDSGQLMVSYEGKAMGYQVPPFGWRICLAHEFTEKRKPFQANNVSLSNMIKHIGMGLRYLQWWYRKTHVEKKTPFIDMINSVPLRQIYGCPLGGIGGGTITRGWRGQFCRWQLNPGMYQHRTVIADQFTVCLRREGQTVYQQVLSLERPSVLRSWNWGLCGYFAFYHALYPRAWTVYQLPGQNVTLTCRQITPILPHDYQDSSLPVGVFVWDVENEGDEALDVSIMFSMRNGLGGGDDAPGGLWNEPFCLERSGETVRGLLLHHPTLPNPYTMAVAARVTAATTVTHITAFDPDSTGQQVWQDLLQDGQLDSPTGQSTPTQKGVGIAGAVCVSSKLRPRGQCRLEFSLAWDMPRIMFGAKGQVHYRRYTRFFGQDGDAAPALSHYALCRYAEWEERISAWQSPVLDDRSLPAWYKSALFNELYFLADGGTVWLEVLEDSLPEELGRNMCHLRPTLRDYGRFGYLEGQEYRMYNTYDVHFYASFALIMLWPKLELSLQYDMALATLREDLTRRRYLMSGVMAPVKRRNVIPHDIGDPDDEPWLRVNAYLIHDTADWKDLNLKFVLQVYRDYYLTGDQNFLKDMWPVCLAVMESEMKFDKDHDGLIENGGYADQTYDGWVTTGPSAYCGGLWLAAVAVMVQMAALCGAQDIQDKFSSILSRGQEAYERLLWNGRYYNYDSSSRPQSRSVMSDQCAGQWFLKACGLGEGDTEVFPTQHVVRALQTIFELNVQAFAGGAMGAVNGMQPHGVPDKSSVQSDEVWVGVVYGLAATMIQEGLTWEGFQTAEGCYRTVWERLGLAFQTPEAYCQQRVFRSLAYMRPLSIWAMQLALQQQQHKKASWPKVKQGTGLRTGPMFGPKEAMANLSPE
Description: as §2
as §3, with “The enzyme was incubated with 12.5 μL of inhibitors diluted in McIlvaine buffer (150 mM, pH 5.2) at 37 °C for 30 min.” left out

GBA3 = target: T3, GBA3 (Homo sapiens, UniProt Q9H227); test: Fluorogenic substrate enzymatic assay, lysate of GBA/GBA2 KO HEK293T cells overexpressing GBA3; conditions: for (Ratio) GBA3/GBA: IC50 ratio; for (Ratio) GBA3/GBA / inhibitory activity against GBA3: in vitro, 30 min; for IC50: incubation time 30 min, enzymatic assay, ±SD, n=3, read-out: In vitro apparent IC50 GBA3
T3 construct: expressed in transfected cells; host or cells: HEK293T (GBA/GBA2 KO background for the fluorogenic assay; endogenous-GBA background with GBA2 and GBA3 overexpressed for ABPP and intact-cell assays)
T3 sequence (Q9H227 1-469): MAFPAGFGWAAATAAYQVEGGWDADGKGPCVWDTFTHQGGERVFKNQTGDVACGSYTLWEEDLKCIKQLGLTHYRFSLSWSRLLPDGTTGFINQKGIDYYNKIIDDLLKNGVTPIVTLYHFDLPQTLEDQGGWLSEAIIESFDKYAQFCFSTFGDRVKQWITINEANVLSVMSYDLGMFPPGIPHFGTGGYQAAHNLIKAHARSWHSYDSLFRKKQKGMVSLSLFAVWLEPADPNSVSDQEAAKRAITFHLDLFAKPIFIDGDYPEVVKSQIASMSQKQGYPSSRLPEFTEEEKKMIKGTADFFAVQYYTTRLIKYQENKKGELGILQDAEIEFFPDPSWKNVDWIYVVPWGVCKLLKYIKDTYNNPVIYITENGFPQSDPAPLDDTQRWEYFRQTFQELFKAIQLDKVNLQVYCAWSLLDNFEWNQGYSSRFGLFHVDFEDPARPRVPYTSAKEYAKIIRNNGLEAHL
Description: as §1, §2, §3

[2] = target: T1, rhGBA (recombinant human GBA, Imiglucerase); test: Fluorogenic substrate (4-MU-β-D-glucoside) enzymatic assay, rhGBA
[3] = incubation time 30 min, enzymatic assay, ±SD, n=3, read-out: In vitro apparent IC50 rhGBA
[4] = incubation time 30 min, enzymatic assay, ±SD, read-out: In vitro apparent IC50 GBA2
[5] = enzymatic assay performed for 3 h, read-out: In vitro apparent IC50 GBA2, 3 h

IC50 ([2]; enzymatic assay performed for 3 h, n=3, read-out: In vitro apparent IC50 rhGBA, 3 h) [nM]	SMILES	IC50 [1, 3] [nM]	(Ratio) GBA2/GBA (GBA2)	IC50 (GBA2; [4]) [nM]	(Ratio) GBA3/GBA (GBA3)	IC50 (GBA3) [nM]	inhibitory activity against GBA [1]	inhibitory activity against GBA2 (GBA2)	inhibitory activity against GBA3 (GBA3)	GBA2/GBA ratio, 3 h (GBA2; in vitro 3 h)	IC50 (GBA2; [5]) [nM]	IC50 [1] [nM]	increase in inhibitory activity towards GBA2 of aziridines relative to epoxide analogues (GBA2; in vitro 3 h)	increase in inhibitory activity towards GBA of aziridines relative to epoxide analogues ([2]; in vitro 3 h)
–	O=C(CCCCC1SCC2NC(=O)NC21)NCc1cn(CCCCCCCCN2C3CC(O)C(O)C(O)C32)nn1 (centres unmarked) [ABP 7]	164 ± 22.1	295	48300 ± 9010	155	25300 ± 5010	–	–	–	–	–	–	–	–
–	CC1=CC(C)=[N+]2C1=C(CCCCc1cn(CCCCCCCCN3[C@H]4[C@H](O)[C@@H](O)[C@H](O)C[C@H]43)nn1)c1c(C)cc(C)n1[B-]2(F)F (some centres unmarked) [ABP 8]	2.7 ± 0.45	23	61.2 ± 12	193	522 ± 209	–	–	–	–	–	–	–	–
–	CN1/C(=C/C=C/C=C/C2=[N+](CCCCCC(=O)NCc3cn(CCCCCCCCN4[C@@H]5[C@H](CO)[C@@H](O)[C@H](O)[C@@H](O)[C@@H]54)nn3)c3ccccc3C2(C)C)C(C)(C)c2ccccc21 (some centres unmarked) [ABP 10, reference compound]	8.1 ± 1.94	2.6	21.5 ± 0.42	1	8.54 ± 1.18	–	–	–	–	–	–	–	–
–	O[C@@H]1[C@@H](O)[C@H](O)C[C@@H]2O[C@H]12 [compound 11, α‐D‐xylose‐configured cyclophellitol]	–	–	–	–	–	no or little inhibitory activity	no or little inhibitory activity	no or little inhibitory activity	–	–	–	–	–
–	O[C@@H]1[C@@H](O)[C@H](O)C[C@@H]2N[C@H]12 [compound 12]	–	–	55800 ± 2340	–	–	no or little inhibitory activity	no or little inhibitory activity	no or little inhibitory activity	–	–	–	–	–
2630 ± 340	O[C@H]1[C@H](O)[C@@H](O)[C@@H]2O[C@@H]2[C@@H]1O [compound 13, Conduritol B‐epoxide, reference compound]	34900 ± 1670	>14	> 500000	>14	> 500000	–	–	–	40	105000 ± 5850	–	–	–
–	O[C@H]1[C@H](O)[C@@H](O)[C@@H]2N[C@@H]2[C@@H]1O [compound 14, conduritol B‐aziridine, reference compound]	–	–	–	–	–	–	–	–	6.6	10800 ± 3300	1630 ± 70	10–20 fold	less than two‐fold increase
